Test results published in patent publication US20260102324A1, “PERFUMING COMPOSITIONS COMPRISING A 2-(ALKYLSULFONYL)OCTAN-4-ONE” (FIRMENICH SA, priority 2022, published 2026).

Assays:
Type in all cases: physicochemical
[1] = Solubility measurements by light transparency (Crystalline PV instrument) on heating to 60° C. and cooling
Method: (§1) Solid 2-(dodecylsulfonyl)octan-4-one was mixed with different solvents and transferred to a 8 mL vial equipped with an overhead stirrer. The sample was placed in a Crystalline PV instrument (Technobis, The Netherlands). Heating and cooling steps were applied under mechanical stirring, and the samples were monitored by following transparency via a LED light beam that passes through the vial. Full (100%) transparency is attained when 2-(dodecylsulfonyl)octan-4-one is completely dissolved in the solvent. On the other hand, when the measured values of transparency are below 100% the dissolution process is still incomplete.
(§2) A first heating step was carried out by quickly (+5° C./min) heating the sample above its solubility temperature to 60° C. After complete dissolution, a cooling ramp to 1° C. was applied (−2° C./min), i.e. below the solubility temperature of the sample, where the sample was kept stirring until 2-(dodecylsulfonyl)octan-4-one has crystallized. Subsequently a second heating step was carried out by applying a shallow heating ramp (+0.1° C./min) in order to dissolve the material under quasi-isothermal conditions. The transparency of the sample was monitored as a function of time during the heating ramp. Once the signal has attained 100% transparency, the dissolution process was complete and the respective temperature was taken as the solubilization temperature (T_sol).
(§3) Following the methodology described above, 2-(dodecylsulfonyl)octan-4-one was mixed with various solvents/liquid carriers that are suitable for perfumery compositions or with perfumery raw materials at a concentration of 5 wt. % and the solubilization temperature has been determined. The solvents and perfumery raw materials used and the respective solubilization temperatures are depicted in Tables 1-3 below.

[2] = Solubility at 25° C. from exponential fit of temperature-solubility curves; details: from extrapolation of temperature-solubility curves
Method: The solubility of 2-(dodecylsulfonyl)octan-4-one at 25° C. in various solvents or perfumery raw materials has been determined based on the data presented in Table 9. For each solvent or perfumery raw material, the measured solubility as a function of temperature has been fitted to an exponential function. The solubility at 25° C. has been obtained by extrapolation or interpolation of this exponential function. The results/exponential curves are shown in the Figure (black triangle: DIPG, grey squares: IPM, open diamonds: Hedione®, black circles: gamma-nonalactone and Cetiol® Ultimate (80/20); the continuous lines represent exponential functions fit to the experimental data).

[3] = Determination of the solubilization temperature (T_sol), shallow heating ramp to 100% transparency
Method: as §1, §2
as §3, with “below. […]” for “below.”

[4] = 5 wt. % in Dimethylglutarate (DBE-5)
[5] = 5 wt. % in Dipropylene glycol (DIPG)
[6] = 5 wt. % in Fragrance composition F1
[7] = 5 wt. % in Fragrance composition F2
[8] = 5 wt. % in Fragrance composition F3
[9] = 5 wt. % in Fragrance composition F4
[10] = 5 wt. % in Fragrance composition F5
[11] = 5 wt. % in Isopropyl myristate (IPM)
[12] = 5 wt. % in gamma-Nonalactone/Cetiol ® Ultimate (80/20; w/w)
[13] = 5 wt. % in gamma-Valerolactone/Isopropyl Myristate (IPM) (70/30 w/w)

- Soluble after cooling to 25° C. ([1]; 5 wt. % in Cetiol ® Ultimate): not capable of fully dissolving and no
- Soluble at 60° C. ([1]; 5 wt. % in Cetiol ® Ultimate): yes
- Soluble after cooling to 25° C. [1, 4]: not capable of fully dissolving and no
- Soluble at 60° C. [1, 4]: yes
- Soluble after cooling to 25° C. [1, 5]: not capable of fully dissolving and no
- Soluble at 60° C. [1, 5]: yes
- Soluble after cooling to 25° C. ([1]; 5 wt. % in Ethyl lactate): not capable of fully dissolving and no
- Soluble at 60° C. ([1]; 5 wt. % in Ethyl lactate): yes
- Soluble after cooling to 25° C. [1, 6]: yes
- Soluble at 60° C. [1, 6]: yes
- Soluble after cooling to 25° C. [1, 7]: yes
- Soluble at 60° C. [1, 7]: yes
- Soluble after cooling to 25° C. [1, 8]: yes
- Soluble at 60° C. [1, 8]: yes
- Soluble after cooling to 25° C. [1, 9]: yes
- Soluble at 60° C. [1, 9]: yes
- Soluble after cooling to 25° C. [1, 10]: yes
- Soluble at 60° C. [1, 10]: yes
- Soluble after cooling to 25° C. ([1]; 5 wt. % in Hedione ®): yes
- Soluble at 60° C. ([1]; 5 wt. % in Hedione ®): yes
- Soluble after cooling to 25° C. [1, 11]: not capable of fully dissolving and no
- Soluble at 60° C. [1, 11]: yes
- Soluble after cooling to 25° C. ([1]; 5 wt. % in Triacetine): not capable of fully dissolving and no
- Soluble at 60° C. ([1]; 5 wt. % in Triacetine): yes
- Soluble after cooling to 25° C. ([1]; 5 wt. % in Triethyl citrate): not capable of fully dissolving and no
- Soluble at 60° C. ([1]; 5 wt. % in Triethyl citrate): yes
- Soluble after cooling to 25° C. ([1]; 5 wt. % in gamma-Decalactone): yes
- Soluble at 60° C. ([1]; 5 wt. % in gamma-Decalactone): yes
- Soluble after cooling to 25° C. [1, 12]: yes
- Soluble at 60° C. [1, 12]: yes
- Soluble after cooling to 25° C. ([1]; 5 wt. % in gamma-Undecalactone): yes
- Soluble at 60° C. ([1]; 5 wt. % in gamma-Undecalactone): yes
- Soluble after cooling to 25° C. ([1]; 5 wt. % in gamma-Valerolactone): yes
- Soluble at 60° C. ([1]; 5 wt. % in gamma-Valerolactone): yes
- Soluble after cooling to 25° C. [1, 13]: yes
- Soluble at 60° C. [1, 13]: yes
- Solubility of 2-(dodecylsulfonyl)octan-4-one at 25° C. ([2]; in gamma-Valerolactone/IPM (70:30 w/w)): 11.3 wt. %
- Solubility of 2-(dodecylsulfonyl)octan-4-one at 25° C. ([2]; in gamma-Valerolactone): 5.5 wt. %
- T_sol ([3]; 5 wt. % in Cetiol ® Ultimate): 45.4 °C
- T_sol [3, 4]: 27.3 °C
- T_sol [3, 5]: 44.6 °C
- T_sol ([3]; 5 wt. % in Ethyl lactate): 26.5 °C
- T_sol [3, 6]: 21.1 °C
- T_sol [3, 7]: 19.8 °C
- T_sol [3, 8]: 17.8 °C
- T_sol [3, 9]: 24.0 °C
- T_sol [3, 10]: 16.3 °C
- T_sol ([3]; 5 wt. % in Hedione ®): 21.0 °C
- T_sol [3, 11]: 33.5 °C
- T_sol ([3]; 5 wt. % in Triacetine): 41.1 °C
- T_sol ([3]; 5 wt. % in Triethyl citrate): 36.2 °C
- T_sol ([3]; 5 wt. % in gamma-Decalactone): 14.6 °C
- T_sol [3, 12]: 10.5 °C
- T_sol ([3]; 5 wt. % in gamma-Undecalactone): 15.3 °C
- T_sol ([3]; 5 wt. % in gamma-Valerolactone): 23.0 °C
- T_sol [3, 13]: 15.3 °C
Compound: CCCCCCCCCCCCS(=O)(=O)C(C)CC(=O)CCCC (centres unmarked) [2-(dodecylsulfonyl)octan-4-one]
